Test results as given in ChEMBL document CHEMBL4196029, “New MD2 inhibitors derived from curcumin with improved anti-inflammatory activity” (Eur J Med Chem, 2018).
The source made the active and inactive calls. No cut-off for these calls is given here.

Experiments:
[1] = target: Mitogen-activated protein kinase 1 (Homo sapiens) (UniProt P28482); assay: Inhibition of recombinant human full length N-terminal GST-tagged ERK2 (1 to 360 end residues) expressed in Escherichia coli at 10 uM after 1 hr by caliper mobility shift assay relative to control
Chain of Mitogen-activated protein kinase 1 (Homo sapiens) (P28482 whole entry): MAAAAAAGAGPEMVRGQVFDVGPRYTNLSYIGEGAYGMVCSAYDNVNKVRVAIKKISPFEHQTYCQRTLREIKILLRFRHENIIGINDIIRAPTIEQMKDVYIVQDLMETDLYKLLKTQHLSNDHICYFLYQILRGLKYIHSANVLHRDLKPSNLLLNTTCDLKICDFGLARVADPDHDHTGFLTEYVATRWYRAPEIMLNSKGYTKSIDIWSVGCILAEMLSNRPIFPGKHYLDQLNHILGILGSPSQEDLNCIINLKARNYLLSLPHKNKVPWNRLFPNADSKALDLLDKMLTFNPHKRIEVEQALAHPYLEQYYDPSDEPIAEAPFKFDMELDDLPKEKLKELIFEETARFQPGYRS

[2] = tested on: Rattus norvegicus; assay: (§1) Anti-inflammatory activity in Sprague-Dawley rat model of LPS-induced acute lung injury assessed as reduction in TNFalpha mRNA level in lungs at 20 mg/kg, po administered daily for 1 week followed by LPS addition at 30 mins post last dose measured after 6 hrs by qRT-PCR method; assay type: functional, organism-based
[3] = tested on: Peritoneal macrophage; assay: Inhibition of LPS-induced IL-1beta mRNA expression in C57BL/6 mouse primary peritoneal macrophages at 10 uM preincubated for 30 mins followed by LPS addition measured after 24 hrs by qRT-PCR analysis; assay type: functional, cell-based
[4] = tested on: Peritoneal macrophage; assay: Anti-inflammatory activity in C57BL/6 mouse primary peritoneal macrophages assessed as inhibition of LPS-induced TNFalpha secretion at 5 uM preincubated for 30 mins followed by LPS addition measured after 24 hrs by ELISA relative to control; assay type: functional; conditions: C57BL/6, Peritoneal macrophage
[5] = tested on: Peritoneal macrophage; assay: Anti-inflammatory activity in C57BL/6 mouse primary peritoneal macrophages assessed as inhibition of LPS-induced IL-6 secretion at 1 to 10 uM preincubated for 30 mins followed by LPS addition measured after 24 hrs by ELISA; assay type: functional, cell-based
[6] = tested on: Peritoneal macrophage; assay: Anti-inflammatory activity in C57BL/6 mouse primary peritoneal macrophages assessed as inhibition of LPS-induced IL-6 secretion at 10 uM preincubated for 30 mins followed by LPS addition measured after 24 hrs by ELISA relative to control; assay type: functional; conditions: C57BL/6, Peritoneal macrophage
[7] = target: Interleukin-1 receptor-associated kinase 1 (Homo sapiens) (UniProt P51617); assay: Inhibition of recombinant human N-terminal GST-tagged IRAK1 (194 to 712 residues) expressed in baculovirus expression system at 0.1 uM after 1 hr by caliper mobility shift assay relative to control
Chain of Interleukin-1 receptor-associated kinase 1 (Homo sapiens) (P51617 whole entry, looked up, the tested form may be a part): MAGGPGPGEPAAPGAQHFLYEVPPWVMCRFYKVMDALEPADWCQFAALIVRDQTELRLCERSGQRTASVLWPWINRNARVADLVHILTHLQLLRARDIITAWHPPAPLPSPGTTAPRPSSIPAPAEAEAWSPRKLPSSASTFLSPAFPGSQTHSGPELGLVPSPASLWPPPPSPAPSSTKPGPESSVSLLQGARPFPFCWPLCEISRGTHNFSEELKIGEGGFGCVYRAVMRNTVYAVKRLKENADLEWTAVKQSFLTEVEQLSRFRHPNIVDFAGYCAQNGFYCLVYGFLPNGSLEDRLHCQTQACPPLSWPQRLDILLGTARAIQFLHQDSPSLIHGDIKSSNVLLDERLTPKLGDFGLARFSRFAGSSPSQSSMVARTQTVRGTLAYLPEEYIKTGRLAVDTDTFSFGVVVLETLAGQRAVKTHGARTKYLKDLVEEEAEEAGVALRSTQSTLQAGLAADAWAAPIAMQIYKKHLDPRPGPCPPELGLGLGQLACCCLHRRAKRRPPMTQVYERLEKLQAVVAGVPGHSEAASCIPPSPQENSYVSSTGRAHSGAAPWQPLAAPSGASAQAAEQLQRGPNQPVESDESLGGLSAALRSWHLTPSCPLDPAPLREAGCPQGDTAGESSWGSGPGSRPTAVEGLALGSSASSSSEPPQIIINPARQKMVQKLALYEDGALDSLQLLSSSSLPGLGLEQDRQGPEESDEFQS

[8] = tested on: Peritoneal macrophage; assay: Anti-inflammatory activity in C57BL/6 mouse primary peritoneal macrophages assessed as inhibition of LPS-induced TNFalpha secretion at 10 uM preincubated for 30 mins followed by LPS addition measured after 24 hrs by ELISA relative to control; assay type: functional; conditions: C57BL/6, Peritoneal macrophage
[9] = tested on: Rattus norvegicus; assay: Anti-inflammatory activity in Sprague-Dawley rat model of LPS-induced acute lung injury assessed as reduction in IL-6 mRNA level in lungs at 20 mg/kg, po administered daily for 1 week followed by LPS addition at 30 mins post last dose measured after 6 hrs by qRT-PCR method; assay type: functional, organism-based
[10] = tested on: Rattus norvegicus; assay: as §1, with “leukocytic extravasation” for “TNFalpha mRNA level”, “lungs by measuring number of cells in BALF” for “lungs”, “Wright-Giemsa staining based light microscopic assay” for “qRT-PCR method”; assay type: functional, organism-based
[11] = Chemical stability in pH 7.4 phosphate buffer at 20 uM measured at 5 mins time intervals for 25 mins by UV absorbance spectroscopic method; assay type: physicochemical; conditions: pH 7.4, 25 min
[12] = tested on: Peritoneal macrophage; assay: Inhibition of LPS-induced IL-6 mRNA expression in C57BL/6 mouse primary peritoneal macrophages at 10 uM preincubated for 30 mins followed by LPS addition measured after 24 hrs by qRT-PCR analysis; assay type: functional, cell-based
[13] = tested on: Peritoneal macrophage; assay: Inhibition of LPS-induced TNFalpha mRNA expression in C57BL/6 mouse primary peritoneal macrophages at 10 uM preincubated for 30 mins followed by LPS addition measured after 24 hrs by qRT-PCR analysis; assay type: functional, cell-based
[14] = tested on: Mus musculus; assay: Anti-inflammatory activity in C57BL/6 mouse model of LPS-induced sepsis assessed as survival at 10 mg/kg, iv administered 15 mins prior to LPS treatment measured for 7 days (reference value: 10 to 30%); assay type: functional; conditions: C57BL/6, iv
[15] = tested on: Peritoneal macrophage; assay: Anti-inflammatory activity in C57BL/6 mouse primary peritoneal macrophages assessed as inhibition of LPS-induced TNFalpha secretion at 1 to 10 uM preincubated for 30 mins followed by LPS addition measured after 24 hrs by ELISA; assay type: functional, cell-based
[16] = tested on: Rattus norvegicus; assay: as §1, with “neutrophil extravasation” for “TNFalpha mRNA level”, “lungs by measuring tissue myeloperoxidase activity” for “lungs”, “spectrophotometric” for “qRT-PCR”; assay type: functional; set-up: scale not given: the % may be the effect or the level left
[17] = target: T1, Inhibitor of nuclear factor kappa-B kinase subunit beta (Homo sapiens) (UniProt O14920); assay: Inhibition of recombinant human N-terminal His-tagged IKKbeta (1 to 662 residues) expressed in baculovirus expression system at 1 uM after 1 hr by caliper mobility shift assay relative to control
T1 sequence (whole entry): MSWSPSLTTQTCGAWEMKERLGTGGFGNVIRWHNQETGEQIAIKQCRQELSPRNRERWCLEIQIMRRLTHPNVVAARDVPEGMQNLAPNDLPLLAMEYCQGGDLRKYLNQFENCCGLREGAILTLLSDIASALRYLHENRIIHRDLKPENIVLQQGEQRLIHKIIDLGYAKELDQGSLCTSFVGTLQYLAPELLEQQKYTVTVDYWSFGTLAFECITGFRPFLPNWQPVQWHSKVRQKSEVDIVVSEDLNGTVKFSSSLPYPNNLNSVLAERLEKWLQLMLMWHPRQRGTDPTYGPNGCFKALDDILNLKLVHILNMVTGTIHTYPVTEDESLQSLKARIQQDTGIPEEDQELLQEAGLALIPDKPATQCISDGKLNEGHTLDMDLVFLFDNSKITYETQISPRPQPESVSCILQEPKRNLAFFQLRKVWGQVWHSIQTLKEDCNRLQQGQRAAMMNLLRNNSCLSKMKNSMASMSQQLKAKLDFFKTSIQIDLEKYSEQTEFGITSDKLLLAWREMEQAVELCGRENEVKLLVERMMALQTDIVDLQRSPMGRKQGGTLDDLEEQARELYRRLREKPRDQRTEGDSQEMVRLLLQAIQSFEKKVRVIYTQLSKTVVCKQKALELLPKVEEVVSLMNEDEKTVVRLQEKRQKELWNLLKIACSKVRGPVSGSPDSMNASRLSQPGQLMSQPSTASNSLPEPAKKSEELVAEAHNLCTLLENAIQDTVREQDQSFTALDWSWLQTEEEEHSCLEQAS

[18] = tested on: Rattus norvegicus; assay: as §1, with “macrophage mobilization to” for “TNFalpha mRNA level in”, “lungs by measuring tissue content of CD68” for “lungs”, “DAB staining based light microscopic” for “qRT-PCR”; assay type: functional, organism-based
[19] = tested on: RAW264.7; assay: Binding affinity to MD2 in […] cells assessed as inhibition of LPS-induced TLR4-MD2 complex dimerization at 10 uM by co-immunoprecipitation assay; assay type: cell-based
[20] = target: Interleukin-1 receptor-associated kinase 1 (Homo sapiens) (UniProt P51617); assay: Inhibition of recombinant human N-terminal GST-tagged IRAK1 (194 to 712 residues) expressed in baculovirus expression system at 1 uM after 1 hr by caliper mobility shift assay relative to control
[21] = tested on: Rattus norvegicus; assay: as §1, with “morphological changes” for “TNFalpha mRNA level”, “hematoxylin and eosin staining based light microscopic assay” for “qRT-PCR method”; assay type: functional, organism-based
[22] = target: Mitogen-activated protein kinase 1 (Homo sapiens) (UniProt P28482); assay: Inhibition of recombinant human full length N-terminal GST-tagged ERK2 (1 to 360 end residues) expressed in Escherichia coli at 1 uM after 1 hr by caliper mobility shift assay relative to control

Structure (SMILES)	inhibition [1] [%]	Activity [2]	inhibition [3]	inhibition at 5 µM [4] [%]	inhibition [5]	inhibition at 10 µM [6] [%]	inhibition [7] [%]	inhibition at 10 µM [8] [%]	Activity [9]	Activity [10]	Stability [11]	inhibition [12]	inhibition [13]	survival at 10 mg/kg [14] [%]	inhibition [15]	Activity [16] [%]	inhibition [17] [%]	Activity [18]	inhibition [19]	inhibition [20] [%]	also measured
COc1cc(/C=C2\CN(C)C/C(=C\c3cc(OC)c(OC)c(OC)c3)C2=O)cc(OC)c1OC	8.7	Active	Active	> 50	Active	> 90	7.7	> 90	Active	Active	Stable	Active	Active	90	Active	40	6.3	Active	Active	8.7	Activity [21]: Active; inhibition [22]: 13.3%
COc1cc(/C=C2\COC/C(=C\c3cc(OC)c(OC)c(OC)c3)C2=O)cc(OC)c1OC	7.4	Active	Active	> 50	Active	> 90	15.9	> 90	Active	Active	Stable	Active	Active	70	Active	40	13.3	Active	Active	8.7	Activity [21]: Active; inhibition [22]: 10.4%
